Results taken from US10212936B2, “Molecules having pesticidal utility, and intermediates, compositions, and processes, related thereto” (priority 2014, dated 2019).

Key:
Format in all cases: in vivo
[1] = tested on: Cabbage Looper (Trichoplusia ni, TRIPNI); experiment: Bioassay on Cabbage Looper (CL), 128-well diet tray assay; conditions: 168 h, 50 μg/cm^2 on artificial diet, second instar larvae, five to seven days, 25° C., read-out: CL % Control (or Mortality) rating
Description: (§1) Example A: Bioassays on Beet Armyworm (Spodoptera exigua, LAPHEG) (“BAW”), Corn Earworm (Helicoverpa zea, HELIZE) (“CEW”), and Cabbage Looper (Trichoplusia ni, TRIPNI) (“CL”)
(§2) Certain molecules disclosed in this document were tested against BAW, CEW, and CL using procedures described in the following examples. In the reporting of the results, the “BAW, CEW, & CL Rating Table” was used (See Table Section).
Bioassays on CL were conducted using a 128-well diet tray assay. one to five second instar CL larvae were placed in each well (3 mL) of the diet tray that had been previously filled with 1 mL of artificial diet to which 50 μg/cm^2 of the test molecule (dissolved in 50 μL of 90:10 acetone-water mixture) had been applied (to each of eight wells) and then allowed to dry. Trays were covered with a clear self-adhesive cover and held at 25° C., 14:10 light-dark for five to seven days. Percent mortality was recorded for the larvae in each well; activity in the eight wells was then averaged. The results are indicated in the table entitled “Table ABC: Biological Results” (See Table Section).

[2] = tested on: Corn Earworm (Helicoverpa zea, HELIZE); experiment: Bioassay on Corn Earworm (CEW), 128-well diet tray assay; conditions: 168 h, 50 μg/cm^2 on artificial diet, second instar larvae, five to seven days, 25° C., read-out: CEW % Control (or Mortality) rating
Description: as §1, §2
Bioassays on CEW were conducted using a 128-well diet tray assay. one to five second instar CEW larvae were placed in each well (3 mL) of the diet tray that had been previously filled with 1 mL of artificial diet to which 50 μg/cm^2 of the test molecule (dissolved in 50 μL of 90:10 acetone-water mixture) had been applied (to each of eight wells) and then allowed to dry. Trays were covered with a clear self-adhesive cover, and held at 25° C., 14:10 light-dark for five to seven days. Percent mortality was recorded for the larvae in each well; activity in the eight wells was then averaged. The results are indicated in the table entitled “Table ABC: Biological Results” (See Table Section).

[3] = tested on: Beet Armyworm (Spodoptera exigua, LAPHEG); experiment: Bioassay on Beet Armyworm (BAW), 128-well diet tray assay; conditions: 168 h, 50 μg/cm^2 on artificial diet, second instar larvae, five to seven days, 25° C., read-out: BAW % Control (or Mortality) rating
Description: as §1, §2
Bioassays on BAW were conducted using a 128-well diet tray assay. one to five second instar BAW larvae were placed in each well (3 mL) of the diet tray that had been previously filled with 1 mL of artificial diet to which 50 μg/cm^2 of the test molecule (dissolved in 50 μL of 90:10 acetone-water mixture) had been applied (to each of eight wells) and then allowed to dry. Trays were covered with a clear self-adhesive cover and held at 25° C., 14:10 light-dark for five to seven days. Percent mortality was recorded for the larvae in each well; activity in the eight wells was then averaged. The results are indicated in the table entitled “Table ABC: Biological Results” (See Table Section).

[4] = tested on: Yellow Fever Mosquito (Aedes aegypti, AEDSAE); experiment: Bioassay on Yellow Fever Mosquito (YFM) larvae, 96-well plate; conditions: about 1 day-old larvae, 4000 ppm DMSO master plate diluted, graded after 3 days
Description: Example C: Bioassays on Yellow Fever Mosquito (Aedes aegypti, AEDSAE) (“YFM”)
Certain molecules disclosed in this document were tested against YFM using procedures described in the following paragraph. In the reporting of the results, the “YFM Rating Table” was used (See Table Section).
Master plates containing 400 μg of a molecule dissolved in 100 μL of dimethyl sulfoxide (DMSO) (equivalent to a 4000 ppm solution) are used. A master plate of assembled molecules contains 15 μL per well. To this plate, 135 μL of a 90:10 water:acetone mixture is added to each well. A robot (Biomek® NXP Laboratory Automation Workstation) is programmed to dispense 15 μL aspirations from the master plate into an empty 96-well shallow plate (“daughter” plate). There are 6 reps (“daughter” plates) created per master. The created daughter plates are then immediately infested with YFM larvae.
The day before plates are to be treated, mosquito eggs are placed in Millipore water containing liver powder to begin hatching (4 g. into 400 mL). After the daughter plates are created using the robot, they are infested with 220 μL of the liver powder/larval mosquito mixture (about 1 day-old larvae). After plates are infested with mosquito larvae, a non-evaporative lid is used to cover the plate to reduce drying. Plates are held at room temperature for 3 days prior to grading. After 3 days, each well is observed and scored based on mortality. The results are indicated in the table entitled “Table ABC: Biological Results” (See Table Section).

Row | SMILES | mortality at 50 µg/cm2 [1] | mortality at 50 µg/cm2 [2] | mortality at 50 µg/cm2 [3] | YFM % Control (or Mortality) rating [4]
1 | O=C(Nc1ccc(-c2ncn(-c3ccc(OC(F)(F)F)cc3)n2)cc1)Nc1nccn1-c1ccncc1 [F33, 1-(1-(Pyridin-4-yl)-1H-imidazol-2-yl)-3-(4-(1-(4-(trifluoromethoxy)phenyl)-1H-1,2,4-triazol-3-yl)phenyl)urea] | 50 to 100% | 50 to 100% | 50 to 100% | –
2 | O=C(Nc1ccc(-c2ncn(-c3ccc(OC(F)(F)F)cc3)n2)cc1)Nc1nccn1-c1cccc(Cl)c1 [F27, 1-(1-(3-Chlorophenyl)-1H-imidazol-2-yl)-3-(4-(1-(4-(trifluoromethoxy)phenyl)-1H-1,2,4-triazol-3-yl)phenyl)urea] | 50 to 100% | 50 to 100% | 50 to 100% | –
3 | Cc1ccccc1-n1ccnc1NC(=O)Nc1ccc(-c2ncn(-c3ccc(OC(F)(F)F)cc3)n2)cc1 [F21, 1-(1-(o-Tolyl)-1H-imidazol-2-yl)-3-(4-(1-(4-(trifluoromethoxy)phenyl)-1H-1,2,4-triazol-3-yl)phenyl)urea] | 50 to 100% | 50 to 100% | 50 to 100% | –
4 | O=C(NCCc1ccc(-c2ncn(-c3ccc(OC(F)(F)F)cc3)n2)cc1)Nc1ncc(-c2ccccc2)o1 [F52, 1-(5-phenyloxazol-2-yl)-3-(4-(1-(4-(trifluoromethoxy)phenyl)-1H-1,2,4-triazol-3-yl)phenethyl)urea] | 50 to 100% | 0% | 50 to 100% | –
5 | CC(C)c1cccc(-n2ccnc2NC(=O)Nc2ccc(-c3ncn(-c4ccc(OC(F)(F)F)cc4)n3)cc2)c1 [F25, 1-(1-(3-Isopropylphenyl)-1H-imidazol-2-yl)-3-(4-(1-(4-(trifluoromethoxy)phenyl)-1H-1,2,4-triazol-3-yl)phenyl)urea] | 50 to 100% | 50 to 100% | 50 to 100% | –
6 | COc1cccc(-n2ccnc2NC(=O)Nc2ccc(-c3ncn(-c4ccc(OC(F)(F)F)cc4)n3)cc2)c1 [F23, 1-(1-(3-Methoxyphenyl)-1H-imidazol-2-yl)-3-(4-(1-(4-(trifluoromethoxy)phenyl)-1H-1,2,4-triazol-3-yl)phenyl)urea] | 50 to 100% | 50 to 100% | 50 to 100% | –
7 | Cc1cccc(-n2ccnc2NC(=O)Nc2ccc(-c3ncn(-c4ccc(OC(F)(F)F)cc4)n3)cc2)c1 [F24, 1-(1-(m-Tolyl)-1H-imidazol-2-yl)-3-(4-(1-(4-(trifluoromethoxy)phenyl)-1H-1,2,4-triazol-3-yl)phenyl)urea] | 50 to 100% | 50 to 100% | 50 to 100% | –
8 | COc1ccc(-n2ccnc2NC(=O)Nc2ccc(-c3ncn(-c4ccc(OC(F)(F)F)cc4)n3)cc2)cc1 [F30, 1-(1-(4-Methoxyphenyl)-1H-imidazol-2-yl)-3-(4-(1-(4-(trifluoromethoxy)phenyl)-1H-1,2,4-triazol-3-yl)phenyl)urea] | 50 to 100% | 50 to 100% | 50 to 100% | –
9 | CC(C)c1ccccc1-n1ccnc1NC(=O)Nc1ccc(-c2ncn(-c3ccc(OC(F)(F)F)cc3)n2)cc1 [F22, 1-(1-(2-Isopropylphenyl)-1H-imidazol-2-yl)-3-(4-(1-(4-(trifluoromethoxy)phenyl)-1H-1,2,4-triazol-3-yl)phenyl)urea] | 50 to 100% | 50 to 100% | 50 to 100% | –
10 | CCc1cccc(-n2ccnc2NC(=O)Nc2ccc(-c3ncn(-c4ccc(OC(F)(F)F)cc4)n3)cc2)c1 [F26, 1-(1-(3-Ethylphenyl)-1H-imidazol-2-yl)-3-(4-(1-(4-(trifluoromethoxy)phenyl)-1H-1,2,4-triazol-3-yl)phenyl)urea] | 50 to 100% | 50 to 100% | 50 to 100% | –
11 | O=C(Nc1ccc(-c2ncn(-c3ccc(OC(F)(F)F)cc3)n2)cc1)Nc1nccn1-c1ccccn1 [F31, 1-(1-(Pyridin-2-yl)-1H-imidazol-2-yl)-3-(4-(1-(4-(trifluoromethoxy)phenyl)-1H-1,2,4-triazol-3-yl)phenyl)urea] | 50 to 100% | 50 to 100% | 50 to 100% | –
12 | O=C(Nc1ccc(-c2ncn(-c3ccc(OC(F)(F)F)cc3)n2)cc1)Nc1nccn1-c1ccccc1 [F20, 1-(1-Phenyl-1H-imidazol-2-yl)-3-(4-(1-(4-(trifluoromethoxy)phenyl)-1H-1,2,4-triazol-3-yl)phenyl)urea] | 50 to 100% | 50 to 100% | 50 to 100% | –
13 | Cc1ccc(-n2ccnc2NC(=O)Nc2ccc(-c3ncn(-c4ccc(OC(F)(F)F)cc4)n3)cc2)cc1 [F29, 1-(1-(p-Tolyl)-1H-imidazol-2-yl)-3-(4-(1-(4-(trifluoromethoxy)phenyl)-1H-1,2,4-triazol-3-yl)phenyl)urea] | 50 to 100% | 50 to 100% | 50 to 100% | –
14 | Cc1cc(C)c(-c2c(NC(=O)NCCc3ccc(-c4ncn(-c5ccc(OC(F)(F)F)cc5)n4)cc3)on(C)c2=O)c(C)c1 [F59, 1-(4-Mesityl-2-methyl-3-oxo-2,3-dihydroisoxazol-5-yl)-3-(4-(1-(4-(trifluoromethoxy)phenyl)-1H-1,2,4-triazol-3-yl)phenethyl)urea] | 50 to 100% | – | 50 to 100% | A (80-100)
15 | O=C(NCCc1ccc(-c2ncn(-c3ccc(OC(F)(F)F)cc3)n2)cc1)Nc1nccs1 [F50, 1-(thiazol-2-yl)-3-(4-(1-(4-(trifluoromethoxy)phenyl)-1H-1,2,4-triazol-3-yl)phenethyl)urea] | 0% | – | 0% | D (No activity noticed in this bioassay)
16 | Cc1cccc(C)c1C1=C(NC(=O)NCCc2ccc(-c3ncn(-c4ccc(OC(F)(F)F)cc4)n3)cc2)OCC1=O [F55, 1-(3-(2,6-Dimethylphenyl)-4-oxo-4,5-dihydrofuran-2-yl)-3-(4-(1-(4-(trifluoromethoxy)phenyl)-1H-1,2,4-triazol-3-yl)phenethyl)urea] | 0% | – | 50 to 100% | A (80-100)
17 | CC(C)c1ccccc1-c1c(NC(=O)NCCc2ccc(-c3ncn(-c4ccc(OC(F)(F)F)cc4)n3)cc2)on(C)c1=O [F58, 1-(4-(2-Isopropylphenyl)-2-methyl-3-oxo-2,3-dihydroisoxazol-5-yl)-3-(4-(1-(4-(trifluoromethoxy)phenyl)-1H-1,2,4-triazol-3-yl)phenethyl)urea] | 50 to 100% | – | 50 to 100% | A (80-100)
18 | COc1ccc(-c2ncsc2NC(=O)Nc2ccc(-c3ncn(-c4ccc(OC(F)(F)F)cc4)n3)cc2)c(C)c1 [F46, 1-(4-(4-Methoxy-2-methylphenyl)thiazol-5-yl)-3-(4-(1-(4-(trifluoromethoxy)phenyl)-1H-1,2,4-triazol-3-yl)phenyl)urea] | 50 to 100% | – | 50 to 100% | A (80-100)
